Results from patent US8338336B2, “Synergistic herbicidal composition containing penoxsulam and oxyfluorfen” (Dow AgroSciences, LLC, priority 2010, dated 2012).

Key:
Assay type in all cases: in vivo
[1] = tested on: CHEAL = common lambsquarter (Chenopodium album); test: Field trial, autumn post-emergence application, residual weed control (Table 3); conditions: rated 56 Days After Application
Description: (§1) Evaluation of Pre-Emergence and Post-Emergence Herbicidal Activity of Mixtures in the Field
(§2) Field trials were conducted in perennial tree and vine crops using standard herbicide small plot research methodology. Plots varied from 3×3 meter (m) to 3×10 m (width×length) with 3 to 4 replicates per treatment. The perennial tree and vine crops were grown using normal cultural practices for the respective areas for the trials, using normal planting, fertilization, watering, flooding and maintenance for pests to ensure good growth of the crop and the weeds.
(§3) All treatments in the field trials were applied using a carbon dioxide (CO2) backpack sprayer calibrated to apply 187 liters per hectare (L/ha) spray volume. Commercially available products of penoxsulam and oxyfluorfen were mixed in water at appropriate formulated product rates to achieve the desired rates shown based on a unit area of application (hectare). Treatments were rated at different intervals from treatment to evaluation, from 7 to 175 days after application as compared to the untreated control plants. Due to the long term residual weed control needed to determine the synergistic effect, all single entity products and their tank mixes were mixed with glyphosate to ensure complete weed burndown to be able to measure residual weed control and not just burndown of weeds. Visual weed control was scored on a scale of 0 to 100 percent where 0 corresponds to no injury and 100 corresponds to complete kill.
(§4) Colby's equation was used to determine the herbicidal effects expected from the mixtures (Colby, S. R. Calculation of the synergistic and antagonistic response of herbicide combinations. Weeds 1967, 15, 20-22).
(§5) The following equation was used to calculate the expected activity of mixtures containing two active ingredients, A and B: Expected=A+B−(A×B/100)
(§6) A=observed efficacy of active ingredient A at the same concentration as used in the mixture.
(§7) B=observed efficacy of active ingredient B at the same concentration as used in the mixture.

[2] = tested on: HEOEU = common heliotrope (Heliotropium europaeum); test: as above; conditions: rated 56 Days After Application
Description: as §1, §2, §3, §4, §5, §6, §7

[3] = tested on: POROL = purslane (Portulaca oleracea); test: as above; conditions: rated 56 Days After Application
Description: as §1, §2, §3, §4, §5, §6, §7

[4] = tested on: MALNE = mallow/malva (Malva neglecta); test: Field trial, winter pre-emergence application, residual weed control (Table 1); conditions: rated 50 to 132 Days After Application
Description: as §1, §2, §3, §4, §5, §6, §7

[5] = tested on: ERIBO = fleabane (Conyza bonariensis); test: as above; conditions: rated 50 to 132 Days After Application
Description: as §1, §2, §3, §4, §5, §6, §7

[6] = tested on: ERICA = marestail (Conyza canadensis); test: as above; conditions: rated 50 to 132 Days After Application
Description: as §1, §2, §3, §4, §5, §6, §7

[7] = tested on: ERICA = marestail (Conyza canadensis); test: Field trial, autumn pre-emergence application, residual weed control (Table 2); conditions: Spain, rated 97 to 175 Days After Application; for % Control ERICA (2) Ob (observed visual weed control): Moron de la frontera; for % Control ERICA (1) Ob (observed visual weed control): Utrera
Description: as §1, §2, §3, §4, §5, §6, §7

[8] = tested on: SHRAR = field madder (Sherardia arvensis); test: as above; conditions: rated 97 to 175 Days After Application
Description: as §1, §2, §3, §4, §5, §6, §7

[9] = tested on: SOLNI = black nightshade (Solanum nigrum); test: Field trial, autumn post-emergence application, post-emergence burndown activity (Table 4); conditions: Seville; for % Control SOLNI(2) Ob (observed visual weed control): Spain - 7 Days After Application; for % Control SOLNI(1) Ob (observed visual weed control): Spain - 20 Days After Application
Description: as §1, §2, §3, §4, §5, §6, §7

Question: With `CCOc1cc(Oc2ccc(C(F)(F)F)cc2Cl)ccc1[N+](=O)[O-]` [Oxyfluorfen] as the compound, how does the “% Control CHEAL Ob (observed visual weed control)” value ([1]; oxyfluorfen 150 g/ha alone) read?
Answer: The value was 0%.

Question: And the “% Control HEOEU Ob (observed visual weed control)” value ([2]; oxyfluorfen 150 g/ha alone)?
Answer: The value was 0%.

Question: And the “% Control POROL Ob (observed visual weed control)” value ([3]; oxyfluorfen 150 g/ha alone)?
Answer: Its value is 0%.

Question: What about the “% Control MALNE Ob (observed visual weed control)” value (shortened to “% Control MALNE Ob”) ([4]; oxyfluorfen 1680 g/ha alone) of the same compound?
Answer: Its value is 30%.

Question: What about the “% Control ERIBO Ob (observed visual weed control)” value ([5]; oxyfluorfen 1120 g/ha alone) of the same compound?
Answer: The value was 0%.

Question: And the “% Control ERICA Ob (observed visual weed control)” value ([6]; oxyfluorfen 1680 g/ha alone)?
Answer: Its value is 5%.

Question: And the “% Control ERICA (2) Ob (observed visual weed control)” value ([7]; oxyfluorfen 150 g/ha alone)?
Answer: Its value is 79%.

Question: And the “% Control ERICA (1) Ob (observed visual weed control)” value ([7]; oxyfluorfen 150 g/ha alone)?
Answer: The value was 38%.

Question: And the “% Control SHRAR Ob (observed visual weed control)” value ([8]; oxyfluorfen 150 g/ha alone)?
Answer: The value was 63%.

Question: What about the “% Control SOLNI(2) Ob (observed visual weed control)” value ([9]; oxyfluorfen 150 g/ha alone) of the same compound?
Answer: Its value is 45%.

Question: And the “% Control SOLNI(1) Ob (observed visual weed control)” value ([9]; oxyfluorfen 150 g/ha alone)?
Answer: The value was 35%.

Question: With `COc1cnc(OC)n2nc(NS(=O)(=O)c3c(OCC(F)F)cccc3C(F)(F)F)nc12` [Penoxsulam, 2-(2,2-difluoroethoxy)-N-(5,8-dimethoxy-[1,2,4]triazolo[1,5-c]pyrimidin-2-yl)-6-(trifluoromethyl)benzenesulfonamide] as the compound, how does the “% Control CHEAL Ob (observed visual weed control)” value ([1]; penoxsulam 20 g/ha alone) read?
Answer: Its value is 0%.

Question: What about the “% Control HEOEU Ob (observed visual weed control)” value ([2]; penoxsulam 20 g/ha alone) of the same compound?
Answer: The value was 0%.

Question: What about the “% Control POROL Ob (observed visual weed control)” value ([3]; penoxsulam 20 g/ha alone) of the same compound?
Answer: The value was 0%.

Question: What about the “% Control MALNE Ob” value ([4]; penoxsulam 17.5 g/ha alone) of the same compound?
Answer: The value was 37%.

Question: And the “% Control MALNE Ob” value ([4]; penoxsulam 35 g/ha alone)?
Answer: Its value is 50%.

Question: And the “% Control ERIBO Ob (observed visual weed control)” value ([5]; penoxsulam 8.8 g/ha alone)?
Answer: Its value is 65%.

Question: And the “% Control ERICA Ob (observed visual weed control)” value ([6]; penoxsulam 8.8 g/ha alone)?
Answer: Its value is 75%.

Question: And the “% Control ERICA (2) Ob (observed visual weed control)” value ([7]; penoxsulam 20 g/ha alone)?
Answer: Its value is 6%.

Question: What about the “% Control ERICA (1) Ob (observed visual weed control)” value ([7]; penoxsulam 20 g/ha alone) of the same compound?
Answer: The value was 23%.

Question: What about the “% Control SHRAR Ob (observed visual weed control)” value ([8]; penoxsulam 20 g/ha alone) of the same compound?
Answer: Its value is 0%.

Question: What about the “% Control SOLNI(2) Ob (observed visual weed control)” value ([9]; penoxsulam 20 g/ha alone) of the same compound?
Answer: The value was 10%.

Question: And the “% Control SOLNI(1) Ob (observed visual weed control)” value ([9]; penoxsulam 20 g/ha alone)?
Answer: Its value is 10%.
